# From PubChem BioAssay AID330 (DTP/NCI, 2004)
# Where “and” joins values, the source holds several entries; their conditions need not be identical. Equal values may be shown once. Toxic doses and inconclusive results are not listed.
# Test system: P388 leukemia ip, CD2F1 mice, survival T/C
# Assay: NCI In Vivo Anticancer Drug Screen. Data for tumor model P388 Leukemia (intraperitoneal) in CD2F1 (CDF1) mice
# Conditions: endpoint: median survival time, higher = longer survival
# Outline: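 Mice carrying the transplanted tumor received test compound or vehicle. Survival was recorded in each group, and the value is the treated-group measurement divided by that of the vehicle-treated control group.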
# [1] = dose: 50.0 mg/kg/injection, schedule: Q01DX009 (ip), vehicle: saline with Tween-80
# [2] = dose: 100.0 mg/kg/injection, schedule: Q01DX009 (ip), vehicle: saline with Tween-80
# [3] = dose: 200.0 mg/kg/injection, schedule: Q01DX009 (ip), vehicle: saline with Tween-80
# [4] = dose: 100.0 mg/kg/injection, schedule: Q04DX003 (ip), vehicle: saline with Tween-80
# [5] = dose: 200.0 mg/kg/injection, schedule: Q04DX003 (ip), vehicle: saline with Tween-80
# [6] = dose: 400.0 mg/kg/injection, schedule: Q04DX003 (ip), vehicle: saline with Tween-80
# [7] = dose: 60.0 mg/kg/injection, schedule: Q01DX005 (ip), vehicle: Klucel (hydroxypropylcellulose) (HPC)
# [8] = dose: 120.0 mg/kg/injection, schedule: Q01DX005 (ip), vehicle: Klucel (hydroxypropylcellulose) (HPC)
# [9] = dose: 50.0 mg/kg/injection, schedule: Q01DX005 (ip), vehicle: saline
# [10] = dose: 100.0 mg/kg/injection, schedule: Q01DX005 (ip), vehicle: saline
# [11] = dose: 200.0 mg/kg/injection, schedule: Q01DX005 (ip), vehicle: saline
# [12] = dose: 60.0 mg/kg/injection, schedule: Q01DX005 (ip), vehicle: saline with Tween-80
# [13] = dose: 50.0 mg/kg/injection, schedule: Q01DX005 (ip), vehicle: saline with Tween-80
# [14] = dose: 100.0 mg/kg/injection, schedule: Q01DX005 (ip), vehicle: saline with Tween-80
# [15] = dose: 200.0 mg/kg/injection, schedule: Q01DX005 (ip), vehicle: saline with Tween-80
# [16] = dose: 50.0 mg/kg/injection, schedule: Q01DX005 (ip), vehicle: Klucel (hydroxypropylcellulose) (HPC)
# [17] = dose: 100.0 mg/kg/injection, schedule: Q01DX005 (ip), vehicle: Klucel (hydroxypropylcellulose) (HPC)
# [18] = dose: 200.0 mg/kg/injection, schedule: Q01DX005 (ip), vehicle: Klucel (hydroxypropylcellulose) (HPC)
smiles,measurement,setting,value
Cc1nn(-c2ccccc2)c(=O)n2nnnc12,T/C,"dose: 100.0 mg/kg/injection, schedule: Q01DX001 (ip), vehicle: saline with Tween-80",96 % of control
same,T/C,"dose: 200.0 mg/kg/injection, schedule: Q01DX001 (ip), vehicle: saline with Tween-80",94 % of control
same,T/C,"dose: 400.0 mg/kg/injection, schedule: Q01DX001 (ip), vehicle: saline with Tween-80",96 % of control
CCOC(=O)c1ccc(NC(CCC(C#N)(CCC(=NC(C)(C)C)Nc2ccc(C(=O)OCC)cc2)C(=O)OCC)=NC(C)(C)C)cc1 (centres undefined),T/C,[1],95 % of control
same,T/C,[2],95 % of control
same,T/C,[3],95 % of control
CC(=O)OC1CC2C(C)(C)C(=O)C=CC2(C)C2CCC3(C)C(c4ccoc4)OC(=O)C4OC43C12C (centres undefined),T/C,[2],90 % of control
same,T/C,[4],109 % of control
same,T/C,[3],95 % of control
same,T/C,[5],100 % of control
same,T/C,"dose: 400.0 mg/kg/injection, schedule: Q01DX009 (ip), vehicle: saline with Tween-80",100 % of control
same,T/C,[6],90 % of control
CC(C)(C)n1nc(C2CC2)cc1NC(=O)Nc1ccccc1,T/C,"dose: 30.0 mg/kg/injection, schedule: Q01DX005 (ip), vehicle: Klucel (hydroxypropylcellulose) (HPC)",99 % of control
same,T/C,[7],98 % of control
same,T/C,[8],98 % of control
O=c1cc[nH]c(=O)n1C1OC(CO)C(O)C1O (centres undefined),T/C,[9],108 % of control
same,T/C,[10],99 % of control
same,T/C,[11],102 % of control
same,T/C,"dose: 400.0 mg/kg/injection, schedule: Q01DX005 (ip), vehicle: saline",98 % of control
CC(C)C1NC(C(C)C)N2C(C(C)C)N12 (centres undefined),T/C,"dose: 100.0 mg/kg/injection, schedule: Q01DX001 (ip), vehicle: Klucel (hydroxypropylcellulose) (HPC)",100 % of control
same,T/C,"dose: 200.0 mg/kg/injection, schedule: Q01DX001 (ip), vehicle: Klucel (hydroxypropylcellulose) (HPC)",100 % of control
same,T/C,"dose: 400.0 mg/kg/injection, schedule: Q01DX001 (ip), vehicle: Klucel (hydroxypropylcellulose) (HPC)",106 % of control
O=C(O)c1c[nH]c2cc(-n3cccc3)ccc2c1=O,T/C,"dose: 15.0 mg/kg/injection, schedule: Q01DX005 (ip), vehicle: saline with Tween-80",102 % of control
same,T/C,"dose: 30.0 mg/kg/injection, schedule: Q01DX005 (ip), vehicle: saline with Tween-80",101 % of control
same,T/C,[12],102 % of control and 88 % of control
CC(C)S(=O)(=O)c1s[nH]c(=O)c1-c1ccccc1,T/C,"dose: 50.0 mg/kg/injection, schedule: Q01DX009 (ip), vehicle: Klucel (hydroxypropylcellulose) (HPC)",109 % of control
same,T/C,"dose: 100.0 mg/kg/injection, schedule: Q01DX009 (ip), vehicle: Klucel (hydroxypropylcellulose) (HPC)",107 % of control
same,T/C,"dose: 200.0 mg/kg/injection, schedule: Q01DX009 (ip), vehicle: Klucel (hydroxypropylcellulose) (HPC)",101 % of control
CC(C)(C)SC(=S)SCC(=O)c1cc2cc(Br)ccc2o1,T/C,[13],89 % of control
same,T/C,[14],96 % of control
same,T/C,[15],93 % of control
O=C1Cn2c(c3c(nc2=O)CCCC3)N1,T/C,[12],100 % of control
same,T/C,"dose: 120.0 mg/kg/injection, schedule: Q01DX005 (ip), vehicle: saline with Tween-80",99 % of control
same,T/C,"dose: 240.0 mg/kg/injection, schedule: Q01DX005 (ip), vehicle: saline with Tween-80",100 % of control
COc1cc2c(cc1O)CC1c3c(cc(O)c(OC)c3-2)CCN1C (centres undefined),T/C,[13],98 % of control
same,T/C,[14],87 % of control
COc1ccc(CCN(CCC#N)C(=O)C(Cl)Cl)cc1,T/C,[16],97 % of control
same,T/C,[17],97 % of control
same,T/C,[18],99 % of control
c1ccc(/C(=N\Nc2ccccn2)c2ccccn2)cc1,T/C,[13],112 % of control
same,T/C,[14],117 % of control
same,T/C,[15],108 % of control
CC(CCc1ccccc1)C(=O)Nc1ccccc1 (centres undefined),T/C,"dose: 100.0 mg/kg/injection, schedule: Q04DX002 (ip), vehicle: saline with Tween-80",99 % of control
same,T/C,"dose: 200.0 mg/kg/injection, schedule: Q04DX002 (ip), vehicle: saline with Tween-80",96 % of control
same,T/C,"dose: 400.0 mg/kg/injection, schedule: Q04DX002 (ip), vehicle: saline with Tween-80",95 % of control
C/C=C(\C)[C@H](O)C(COCc1ccccc1)NS(=O)(=O)c1ccc(C)cc1 (some centres undefined),T/C,[7],100 % of control
same,T/C,[8],100 % of control
same,T/C,"dose: 240.0 mg/kg/injection, schedule: Q01DX005 (ip), vehicle: Klucel (hydroxypropylcellulose) (HPC)",92 % of control
COc1ccc(CN2CCC[S+]2C)cc1 (centres undefined),T/C,[9],95 % of control
CCN(CC)c1ccc(NC(C(=O)c2ccccc2)c2ccccc2)cc1 (centres undefined),T/C,"dose: 3.12 mg/kg/injection, schedule: Q01DX005 (ip), vehicle: Klucel (hydroxypropylcellulose) (HPC)",104 % of control and 109 % of control
same,T/C,"dose: 6.25 mg/kg/injection, schedule: Q01DX005 (ip), vehicle: Klucel (hydroxypropylcellulose) (HPC)",103 % of control and 109 % of control and 96 % of control
same,T/C,"dose: 12.5 mg/kg/injection, schedule: Q01DX005 (ip), vehicle: Klucel (hydroxypropylcellulose) (HPC)",104 % of control and 121 % of control and 96 % of control
same,T/C,"dose: 25.0 mg/kg/injection, schedule: Q01DX005 (ip), vehicle: Klucel (hydroxypropylcellulose) (HPC)",112 % of control and 95 % of control
O=C(O)/C=C\C(=O)ONCc1ccccc1,T/C,[13],106 % of control
same,T/C,[14],106 % of control
same,T/C,[15],106 % of control
CC1=CC(OC(C)C)OC1=O (centres undefined),T/C,[9],108 % of control
same,T/C,[10],110 % of control
same,T/C,[11],110 % of control
c1ccc2c(c1)ccc1c2c[n+](CCCCCCCC[n+]2cc3c4ccccc4ccc3c3ccccc32)c2ccccc12,T/C,"dose: 0.78 mg/kg/injection, schedule: Q01DX009 (ip), vehicle: distilled water + Tween-80",172 % of control
same,T/C,"dose: 1.56 mg/kg/injection, schedule: Q01DX009 (ip), vehicle: distilled water + Tween-80",163 % of control
same,T/C,"dose: 3.13 mg/kg/injection, schedule: Q01DX009 (ip), vehicle: distilled water + Tween-80",204 % of control
same,T/C,"dose: 6.25 mg/kg/injection, schedule: Q01DX009 (ip), vehicle: distilled water + Tween-80",209 % of control
CC(C)(C)c1ccc(-c2nnc(C(F)(F)F)nn2)cc1,T/C,[1],100 % of control
same,T/C,[2],100 % of control
same,T/C,[3],108 % of control
O=P(c1ccccc1)(c1ccccc1)c1ccccc1.[CH3][Sn]([Cl])([Cl])[c]1ccccc1,T/C,"dose: 12.5 mg/kg/injection, schedule: Q04DX003 (ip), vehicle: saline",100 % of control and 118 % of control
same,T/C,"dose: 25.0 mg/kg/injection, schedule: Q04DX003 (ip), vehicle: saline",100 % of control and 104 % of control
same,T/C,"dose: 50.0 mg/kg/injection, schedule: Q04DX003 (ip), vehicle: saline",100 % of control and 101 % of control
same,T/C,"dose: 100.0 mg/kg/injection, schedule: Q04DX003 (ip), vehicle: saline",100 % of control and 110 % of control
Cc1nnc2c(c(=O)n(C)c(=O)n2C)[n+]1[O-],T/C,"dose: 12.5 mg/kg/injection, schedule: Q01DX001 (ip), vehicle: saline",105 % of control
same,T/C,"dose: 25.0 mg/kg/injection, schedule: Q01DX001 (ip), vehicle: saline",109 % of control
same,T/C,"dose: 50.0 mg/kg/injection, schedule: Q01DX001 (ip), vehicle: saline",106 % of control
Cc1ccc(S(=O)(=O)NCCSSCCNS(=O)(=O)c2ccc(C)cc2)cc1,T/C,[16],103 % of control
same,T/C,[17],106 % of control
same,T/C,[18],103 % of control
CC(=O)C1CCC2=C(C1)C(=O)c1cc3c(cc1C2=O)C1(c2ccccc2)OC3(c2ccccc2)C2C(=O)N(c3ccccc3)C(=O)C21 (centres undefined),T/C,[7],90 % of control
same,T/C,[8],88 % of control
CC(C)COC(=O)CN(CC(=O)OCC(C)C)c1ccccc1,T/C,[4],109 % of control
same,T/C,[5],104 % of control
same,T/C,[6],113 % of control
NOCc1csc(N)n1,T/C,"dose: 75.0 mg/kg/injection, schedule: Q01DX009 (ip), vehicle: saline",91 % of control
same,T/C,"dose: 150.0 mg/kg/injection, schedule: Q01DX009 (ip), vehicle: saline",91 % of control
same,T/C,"dose: 300.0 mg/kg/injection, schedule: Q01DX009 (ip), vehicle: saline",91 % of control
COc1cccc2c1C(=O)c1c(O)c3c(c(O)c1C2=O)C[C@@](O)(C(=O)CSc1nnc(C)s1)C[C@@H]3OC1CC(N)C(O)C(C)O1 (some centres undefined),T/C,"dose: 6.25 mg/kg/injection, schedule: Q01DX009 (ip), vehicle: water",154 % of control
same,T/C,"dose: 12.5 mg/kg/injection, schedule: Q01DX009 (ip), vehicle: water",155 % of control and 158 % of control
Cc1nc2nc(Cl)c(Cl)nc2[nH]1,T/C,"dose: 25.0 mg/kg/injection, schedule: Q01DX009 (ip), vehicle: saline with Tween-80",100 % of control
same,T/C,[1],104 % of control
same,T/C,[2],104 % of control
